Source: PMC3412845, “Waking Action of Ursodeoxycholic Acid (UDCA) Involves Histamine and GABAA Receptor Block” (PLoS ONE, 2012)
Several values for one entry are separate records, joined by “and”; a condition that tells them apart may be missing. Equal entries are not always repeated.

Experiments:
[1] = system: HDC−/− mice; test: Polygraphic (EEG/EMG) sleep-wake recording in histamine-deficient mice; format: in vivo, mouse
Protocol: Animal experiments were conducted according to the Animal Protection Law of the Federal Republic of Germany and the local guidelines (Bezirksregierung Duesseldorf) and were in accordance with the European Communities Council directive regarding care and use of animals for experimental procedures (86/609/EEC). The general protocol of sleep-wake recording and experiment in the mouse was approved by the ethic committee of Claude Bernard University of Lyon. All efforts were made to minimize the number of animals and their suffering. At the age of 12 weeks and with a body weight of 30±2 g HDC wild type and knockout mice used for EEG and sleep-wake studies were chronically implanted, under deep gas anesthesia using isoflurane (2%, 200 ml/min) and a TEM anesthesia system (Bordeaux, France), with six cortical electrodes (gold-plated tinned copper wire, Ø = 0.4 mm, Filotex, Draveil, France) and three neck muscle electrodes (fluorocarbon-coated gold-plated stainless steel wire, Ø = 0.03 mm, Cooner Wire Chatworth, CA, U.S.A.) to record the electroencephalogram (EEG) and electromyogram (EMG) and to monitor the sleep-wake cycle. Finally, the electrode assembly was anchored and fixed to the skull with Super-Bond (Sun Medical Co., Shiga, Japan) and dental cement. This implantation allows stable and long-lasting polygraphic recordings.
After surgery, the animals were housed individually in barrels placed in an insulated sound-proof recording room maintained at an ambient temperature of 22±1°C and on a 12 h light/dark cycle (lights-on at 7 a.m.), standard food and water being available ad libitum. After a 7-days recovery period, mice were habituated to the recording cable for 7 days before polygraphic recordings were started. Cortical EEG (contralateral frontoparietal leads) and EMG signals were amplified, digitized with a resolution of 256 and 128 Hz, respectively, and computed on a CED 1401 Plus (Cambridge, UK). Using a Spike2 script and with the assistance of spectral analysis using the fast Fourier transform, polygraphic records were visually scored by 30-sec epochs for wakefulness (W), slow wave sleep (SWS), and paradoxical sleep (PS) according to previously described criteria validated for mice.
Animals were subjected to 12 h sleep-wake recordings following administration of URSOFALK (clinically used UDCA, 32 mg/kg) through the oral route (per os) at 10 a.m. (during the sleepy period) or at 7 p.m. (during the active period). Each animal received twice single dose of UDCA and twice equal volume of vehicle. There was an interval of 7 days between any two administrations. UDCA or vehicle was applied at random. The waking, slow wave sleep or paradoxical sleep amounts were compared between vehicle and UCDA within the same animal, the differences being averaged within the groups. […]

[2] = system: AMPA-receptor; test: Kainate-evoked AMPA-receptor mediated currents in isolated neurons; format: cell-based
Protocol: Recordings from histaminergic neurons in male Wistar rat (22–26 day old) or 30–60 day old mouse (SV129, histidine decarboxylase deficient HDC−/− or their wild type littermates) hypothalamic slices were performed as previously described. Slices were obtained between 9 and 11 a.m. In the beginning of whole-cell voltage clamp recordings TMN neurons were identified with the help of DIC microscopy and electrophysiological criteria as previously described. Inhibitory postsynaptic currents (IPSCs) were evoked by local stimulation through a bipolar stainless-steel stimulating electrode (50 µm; WPI, UK). The stimulation of axonal endings coming to TMN from ventrolateral preoptic area (VLPO) was done as described in [22]. […] Individual neurons were separated by vibrodissociation after brief preincubation with papain from the hypothalamic slices of mice or rats and identified as TMN neurons according to their size and shape. Identification was confirmed post hoc with the single-cell RT-PCR (all data presented in the manuscript were obtained from histidine decarboxylase-expressing neurons), [40]. TMN neurons from HDC−/− mice were identified by the expression of peripherin [16]. […] Membrane potentials were not corrected for liquid junction potential (5.6 mV, calculated with LJPCalc, Barry, 1994). […]

[3] = biological target: T1, β3 homopentameric GABAA receptors (Homo sapiens, UniProt P28472); test: Block of spontaneous openings of β3 homopentameric receptors (outward shift of baseline current); format: cell-based
T1 construct: expressed in transfected cells; host or cells: HEK293
T1 sequence (P28472 26-473): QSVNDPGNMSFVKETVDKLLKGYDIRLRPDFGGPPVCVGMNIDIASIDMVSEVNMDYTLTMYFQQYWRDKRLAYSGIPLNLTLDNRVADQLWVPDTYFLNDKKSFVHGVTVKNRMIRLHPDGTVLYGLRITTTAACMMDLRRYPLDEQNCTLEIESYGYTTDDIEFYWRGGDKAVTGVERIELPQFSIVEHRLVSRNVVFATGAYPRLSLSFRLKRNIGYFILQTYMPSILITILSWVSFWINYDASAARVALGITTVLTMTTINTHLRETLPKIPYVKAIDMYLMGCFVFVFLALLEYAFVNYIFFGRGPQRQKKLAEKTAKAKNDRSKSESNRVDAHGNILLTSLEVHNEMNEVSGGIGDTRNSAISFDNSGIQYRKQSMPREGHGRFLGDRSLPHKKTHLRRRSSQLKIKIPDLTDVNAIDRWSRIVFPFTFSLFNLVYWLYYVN
Protocol: (§1) HEK 293 cells were obtained from DSM (Deutsche Sammlung von Mikroorganismen und Zellkulturen GmbH, DSM, Braunschweig). They were grown and maintained according to published standard protocols. Briefly, cells were grown in minimal essential medium supplemented with 10% fetal bovine serum, 100units/ml penicillin and streptomycin and 2 mM L-glutamine and splitted once per week. Semiconfluent cells were transfected on the third day after splitting with the help of Lipofectamine 2000 (Invitrogen), recordings were done 48–72 hrs after transfection.
(§2) The GABAAR subunit cDNAs, generously donated by G.Gisselmann (rat α1, mouse γ2L, rat β1, β2 and human β3 [26]) and J.H. Steinbach (rat α1V256S [28] and rat α1Q241L [44]), were subcloned into pcDNA3 (Invitrogen, Karlsruhe, Germany) and applied in a ratio 1∶1∶1 for the α1βxγ2L receptor and 1∶1 for α1β3 or β3γ2L receptors. […] For each receptor type patch clamp recordings were obtained from at least three separate transfections. Whole-cell patch clamp recordings were done in a similar extracellular solution as for the native cells (see above) except that the concentration of MgCl2 was reduced to 1.2 mM. Intracellular electrodes contained 140 mM CsCl (instead of KCl), pH adjusted with CsOH. The voltage was held at −40 mV.

[4] = biological target: T2, α1β2γ2L GABAA receptors (WT) (UniProt P22723+P62813+P63138); test: Patch-clamp of recombinant wild-type α1β2γ2L GABAAR in HEK293 cells; format: cell-based, rat α1, rat β2, mouse γ2L
T2 construct: expressed in transfected cells; host or cells: HEK293
T2 sequence (P62813 28-455): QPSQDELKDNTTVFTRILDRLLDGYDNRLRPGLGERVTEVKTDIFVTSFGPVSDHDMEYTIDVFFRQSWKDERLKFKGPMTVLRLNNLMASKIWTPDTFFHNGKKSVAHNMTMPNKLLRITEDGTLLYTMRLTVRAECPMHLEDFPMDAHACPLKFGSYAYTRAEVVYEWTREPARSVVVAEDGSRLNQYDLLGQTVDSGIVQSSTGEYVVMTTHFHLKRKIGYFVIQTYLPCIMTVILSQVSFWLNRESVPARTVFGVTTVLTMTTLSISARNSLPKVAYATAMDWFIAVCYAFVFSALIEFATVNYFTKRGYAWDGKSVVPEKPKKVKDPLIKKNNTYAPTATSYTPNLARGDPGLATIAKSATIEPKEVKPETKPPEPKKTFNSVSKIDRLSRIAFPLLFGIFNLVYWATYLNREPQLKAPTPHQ
T2 sequence (P63138 25-474 limits assumed): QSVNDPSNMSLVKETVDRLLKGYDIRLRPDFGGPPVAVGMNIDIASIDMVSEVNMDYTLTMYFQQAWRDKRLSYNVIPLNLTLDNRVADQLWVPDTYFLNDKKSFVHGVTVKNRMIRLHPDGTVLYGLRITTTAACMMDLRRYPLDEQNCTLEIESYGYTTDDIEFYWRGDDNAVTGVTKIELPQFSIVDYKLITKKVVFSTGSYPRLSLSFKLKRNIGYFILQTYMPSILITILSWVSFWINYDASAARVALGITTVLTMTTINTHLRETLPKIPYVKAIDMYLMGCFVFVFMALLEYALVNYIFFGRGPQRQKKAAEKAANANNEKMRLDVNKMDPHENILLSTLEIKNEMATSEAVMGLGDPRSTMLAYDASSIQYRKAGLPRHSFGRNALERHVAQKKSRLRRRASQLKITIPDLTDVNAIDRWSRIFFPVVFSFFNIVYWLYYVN
T2 sequence (P22723 39-474): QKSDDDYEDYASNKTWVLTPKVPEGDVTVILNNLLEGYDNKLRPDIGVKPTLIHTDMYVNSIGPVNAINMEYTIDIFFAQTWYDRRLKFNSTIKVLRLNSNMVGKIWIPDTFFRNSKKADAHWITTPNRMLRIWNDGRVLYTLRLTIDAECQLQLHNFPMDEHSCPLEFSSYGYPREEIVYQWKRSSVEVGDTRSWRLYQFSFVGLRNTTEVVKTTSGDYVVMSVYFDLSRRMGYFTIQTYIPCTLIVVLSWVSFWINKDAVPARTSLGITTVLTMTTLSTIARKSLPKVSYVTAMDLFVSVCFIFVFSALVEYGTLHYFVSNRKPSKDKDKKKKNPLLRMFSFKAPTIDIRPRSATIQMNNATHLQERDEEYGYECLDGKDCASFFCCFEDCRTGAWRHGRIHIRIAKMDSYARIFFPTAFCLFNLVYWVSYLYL
Protocol: as §1, §2

[5] = biological target: T3, α1Q241L mutant α1β2γ2L GABAA receptors (UniProt P22723+P62813+P63138, Q268L); test: Patch-clamp of mutant α1Q241L-containing α1β2γ2L GABAAR in HEK293 cells; format: cell-based, rat α1Q241L, rat β2, mouse γ2L; conditions: UDCA 100 µM, 500 µM GABA, n = 5
T3 construct: expressed in transfected cells; host or cells: HEK293
T3 sequence (P62813 28-455 Q268L): as the sequence (P62813 28-455) above, with Q241L counted along it
T3 sequence (P63138 25-474 limits assumed): as the sequence (P63138 25-474 limits assumed) above
T3 sequence (P22723 39-474): as the sequence (P22723 39-474) above
Protocol: as §1, §2

[6] = UDCA 32 mg/kg per os at 7 p.m., vs vehicle

**Q.** How did the sleep wake states ([1]; 32 mg/kg orally at 10 a.m. (quiet period), n = 7) turn out when `C[C@H](CCC(=O)O)[C@H]1CC[C@H]2[C@@H]3[C@@H](O)C[C@@H]4C[C@H](O)CC[C@]4(C)[C@H]3CC[C@]12C` [UDCA, ursodeoxycholic acid] was run?
**A.** Its sleep wake states is “did not affect”.

**Q.** And the “slow wave sleep (SWS) and paradoxical sleep (PS)” value [1, 6]?
**A.** Its value is “tended to be increased”.

**Q.** And the total sleep [1, 6]?
**A.** Its total sleep is “increased”.

**Q.** And the waking [1, 6]?
**A.** Its waking is “significantly decreased”.

**Q.** And the AMPA-receptor mediated currents ([2]; 100 µM)?
**A.** Its AMPA-receptor mediated currents is “did not affect”.

**Q.** And the “AMPA-receptor mediated currents (responses to 150 µM of kainate)” value ([2]; up to […])?
**A.** The value was “did not affect”.

**Q.** What about the “additivity of outward currents of maximal UDCA (300, 600 µM) and picrotoxin (25 µM)” value [3] of the same compound?
**A.** The value was “not additive”.

**Q.** What about the IC50 ([3]; roughly estimated, read-out: half-maximal effect on outward shift of baseline current) of the same compound?
**A.** The IC50 was ~100 µM.

**Q.** And the IC50 ([4]; IC50 of inhibition of GABA currents, maximal GABA, WT)?
**A.** The IC50 was 85 µM and 84.7 µM.

**Q.** What about the “relative amplitude of maximal GABA-responses” value ([4]; UDCA 100 µM, n = 7) of the same compound?
**A.** Its value is 47±3 % of control.

**Q.** And the “maximal steady-state GABA current” value [5]?
**A.** Its value is 54±2 % of control.
